From article PMC2976827 (Neuropharmacology, 2010)
pKd: −log10 of the molar value.

Biological target: T1, GluK1 (Rattus norvegicus, UniProt P22756, DEL560-681)
T1 sequence (P22756 446-559): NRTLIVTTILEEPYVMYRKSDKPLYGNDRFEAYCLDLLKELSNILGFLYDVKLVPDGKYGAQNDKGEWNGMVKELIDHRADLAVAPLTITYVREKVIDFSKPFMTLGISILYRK
T1 sequence (P22756 682-821): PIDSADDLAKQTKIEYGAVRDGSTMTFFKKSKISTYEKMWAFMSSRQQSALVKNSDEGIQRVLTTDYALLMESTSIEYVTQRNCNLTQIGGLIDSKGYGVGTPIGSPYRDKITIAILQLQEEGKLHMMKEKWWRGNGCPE
Test: crystal structure
Assay type: binding

| Structure (SMILES) | pKd |
| --- | --- |
| N[C@@H](Cn1cc(Br)c(=O)n(Cc2ccsc2C(=O)O)c1=O)C(=O)O [UBP318, (S)-1-(2-amino-2-carboxyethyl)-5-bromo-3-(2-carboxythiophene-3-yl-methyl)pyrimidine-2,4-dione] | 6.73 |
| Cc1cn(C[C@H](N)C(=O)O)c(=O)n(Cc2c(C(=O)O)sc(Br)c2Br)c1=O [UBP315, (S)-1-(2-Amino-2-carboxyethyl)-3-(2-carboxy-4,5-dibromothiophene-3-yl-methyl)-5-methylpyrimidine-2,4-dione] | 7.48 |
